In ChEMBL document CHEMBL3734721 (J Med Chem, 2015):

Columns and labels:
[1] = target: T1, Muscarinic acetylcholine receptor M1 (Homo sapiens, UniProt P11229); assay: Agonist activity at human wild-type M1 receptor expressed in CHO-K1 cells assessed as calcium level by FDSS assay; format: functional, cell-based
T1 sequence (P11229 whole entry): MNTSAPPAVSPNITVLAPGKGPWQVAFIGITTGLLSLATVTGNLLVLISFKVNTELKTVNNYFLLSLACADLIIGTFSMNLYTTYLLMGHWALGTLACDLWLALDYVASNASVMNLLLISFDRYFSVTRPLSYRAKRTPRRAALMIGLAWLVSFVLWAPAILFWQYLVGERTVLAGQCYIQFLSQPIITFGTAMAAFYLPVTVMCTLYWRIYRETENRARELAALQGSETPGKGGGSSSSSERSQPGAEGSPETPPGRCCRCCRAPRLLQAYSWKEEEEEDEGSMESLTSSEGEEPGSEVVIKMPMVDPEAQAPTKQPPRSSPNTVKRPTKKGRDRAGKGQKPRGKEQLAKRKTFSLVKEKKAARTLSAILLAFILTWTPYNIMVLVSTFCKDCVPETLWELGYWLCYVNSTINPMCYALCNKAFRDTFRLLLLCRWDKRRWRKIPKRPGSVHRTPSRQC

[2] = target: 5-hydroxytryptamine receptor 7 (Homo sapiens, UniProt P34969); assay: Antagonist activity at human wild-type 5-HT7 receptor expressed in HEK cells assessed as seretonin-induced cAMP by HTRF assay; format: functional, cell-based, HEK293
[3] = target: T2, Alpha-2A adrenergic receptor (Homo sapiens, UniProt P08913); assay: Agonist activity at human wild-type alpha 2A receptor expressed in CHO-K1 cells assessed as cAMP level by HTRF assay; format: functional, cell-based
T2 sequence (P08913 whole entry): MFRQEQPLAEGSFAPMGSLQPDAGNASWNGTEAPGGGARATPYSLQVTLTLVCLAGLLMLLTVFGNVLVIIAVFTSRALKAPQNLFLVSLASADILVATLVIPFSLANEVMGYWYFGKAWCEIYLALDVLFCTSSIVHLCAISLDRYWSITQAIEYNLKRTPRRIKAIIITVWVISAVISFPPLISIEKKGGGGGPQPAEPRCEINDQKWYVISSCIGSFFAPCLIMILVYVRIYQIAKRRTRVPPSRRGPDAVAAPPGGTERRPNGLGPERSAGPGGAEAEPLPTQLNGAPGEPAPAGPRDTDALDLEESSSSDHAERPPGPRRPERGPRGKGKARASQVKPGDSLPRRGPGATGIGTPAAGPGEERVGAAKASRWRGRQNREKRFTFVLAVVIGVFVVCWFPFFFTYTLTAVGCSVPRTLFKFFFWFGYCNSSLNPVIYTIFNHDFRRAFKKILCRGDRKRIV

[4] = target: T3, Kappa-type opioid receptor (Homo sapiens, UniProt P41145); assay: Agonist activity at human wild-type opioid-kappa 1 receptor expressed in CHO-K1 cells assessed as cAMP level by HTRF assay; format: functional, cell-based
[5] = target: T2, Alpha-2A adrenergic receptor; assay: Antagonist activity at human wild-type alpha 2A receptor expressed in CHO-K1 cells assessed as epinephrine-induced cAMP by HTRF assay; format: functional, cell-based
[6] = target: T3, Kappa-type opioid receptor; assay: Antagonist activity at human wild-type opioid-kappa 1 receptor expressed in CHO-K1 cells assessed as U50488-induced cAMP by HTRF assay; format: functional, cell-based
Adenosine receptor A3 = target: T4, Adenosine receptor A3 (Homo sapiens, UniProt P0DMS8); assay: Antagonist activity at human wild-type A3 receptor expressed in CHO-K1 cells assessed as IB MECA-induced cAMP by HTRF assay; format: functional, cell-based
T4 sequence (P0DMS8 whole entry): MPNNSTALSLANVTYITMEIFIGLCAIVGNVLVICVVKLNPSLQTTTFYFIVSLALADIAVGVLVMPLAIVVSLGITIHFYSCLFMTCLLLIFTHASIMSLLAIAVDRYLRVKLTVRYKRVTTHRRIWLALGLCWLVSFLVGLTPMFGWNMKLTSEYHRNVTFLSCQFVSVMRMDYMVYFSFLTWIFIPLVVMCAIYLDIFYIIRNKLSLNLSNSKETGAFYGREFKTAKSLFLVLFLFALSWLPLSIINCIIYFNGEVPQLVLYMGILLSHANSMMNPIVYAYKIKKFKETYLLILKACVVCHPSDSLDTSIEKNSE

[7] = Intrinsic clearance in mouse liver microsomes at 1 uM by HPLC/MS/MS analysis; format: ADME; settings: read-out: CLH
[8] = target: T5, Alpha-1A adrenergic receptor (Homo sapiens, UniProt P35348); assay: Agonist activity at human wild-type alpha 1A receptor expressed in CHO cells assessed as calcium level by HTRF assay; format: functional, cell-based
T5 sequence (P35348 whole entry): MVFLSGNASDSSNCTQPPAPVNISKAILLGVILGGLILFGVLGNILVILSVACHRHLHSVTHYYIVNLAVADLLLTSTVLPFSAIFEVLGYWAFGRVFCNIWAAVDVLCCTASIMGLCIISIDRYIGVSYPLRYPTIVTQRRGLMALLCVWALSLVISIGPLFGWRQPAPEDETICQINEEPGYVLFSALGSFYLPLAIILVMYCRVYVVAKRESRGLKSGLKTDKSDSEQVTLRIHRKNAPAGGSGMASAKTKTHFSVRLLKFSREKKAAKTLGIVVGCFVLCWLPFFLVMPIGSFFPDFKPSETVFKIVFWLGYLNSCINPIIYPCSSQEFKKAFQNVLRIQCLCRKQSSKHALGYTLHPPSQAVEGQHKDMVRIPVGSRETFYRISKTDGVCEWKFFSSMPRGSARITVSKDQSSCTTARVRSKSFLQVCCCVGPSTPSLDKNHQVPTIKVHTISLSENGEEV

[9] = target: T6, 5-hydroxytryptamine receptor 2C (Homo sapiens, UniProt P28335); assay: Antagonist activity at human 5-HT2C receptor expressed in CHO-K1 cells assessed as seretonin-induced calcium level by FDSS assay; format: functional, cell-based
T6 sequence (P28335 whole entry): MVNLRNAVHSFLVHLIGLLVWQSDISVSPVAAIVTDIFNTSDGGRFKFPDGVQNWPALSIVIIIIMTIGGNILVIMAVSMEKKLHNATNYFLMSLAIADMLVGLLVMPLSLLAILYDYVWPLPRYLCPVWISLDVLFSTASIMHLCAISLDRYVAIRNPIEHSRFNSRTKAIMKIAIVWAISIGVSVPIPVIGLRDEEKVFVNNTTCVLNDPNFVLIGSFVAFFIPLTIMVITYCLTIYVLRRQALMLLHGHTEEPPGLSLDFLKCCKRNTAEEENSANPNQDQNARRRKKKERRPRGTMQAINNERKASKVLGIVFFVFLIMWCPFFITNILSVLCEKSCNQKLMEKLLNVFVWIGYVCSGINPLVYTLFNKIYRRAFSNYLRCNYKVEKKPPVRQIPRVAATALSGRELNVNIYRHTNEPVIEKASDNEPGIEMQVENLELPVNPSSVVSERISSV

[10] = Chemical stability of compound in DMSO assessed as compound remaining at 10 mg/ml after 2 days at room temperature; format: physicochemical; settings: read-out: Stability
[11] = Fraction unbound in human plasma at 5 uM after 4.5 hrs by LC-MS/MS analysis; format: ADME, cell-free

T3 sequence (P41145 whole entry): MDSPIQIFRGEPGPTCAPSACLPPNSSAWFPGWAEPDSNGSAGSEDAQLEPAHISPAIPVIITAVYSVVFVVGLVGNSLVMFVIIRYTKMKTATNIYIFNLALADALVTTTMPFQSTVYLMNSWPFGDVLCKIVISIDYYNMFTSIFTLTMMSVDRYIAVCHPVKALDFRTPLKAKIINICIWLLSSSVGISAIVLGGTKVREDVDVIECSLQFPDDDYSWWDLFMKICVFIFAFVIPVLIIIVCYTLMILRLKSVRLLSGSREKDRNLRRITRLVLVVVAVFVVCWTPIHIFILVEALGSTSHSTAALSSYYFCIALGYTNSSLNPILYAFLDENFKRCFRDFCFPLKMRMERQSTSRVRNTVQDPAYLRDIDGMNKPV
5-hydroxytryptamine receptor 7, sequence (P34969 whole entry): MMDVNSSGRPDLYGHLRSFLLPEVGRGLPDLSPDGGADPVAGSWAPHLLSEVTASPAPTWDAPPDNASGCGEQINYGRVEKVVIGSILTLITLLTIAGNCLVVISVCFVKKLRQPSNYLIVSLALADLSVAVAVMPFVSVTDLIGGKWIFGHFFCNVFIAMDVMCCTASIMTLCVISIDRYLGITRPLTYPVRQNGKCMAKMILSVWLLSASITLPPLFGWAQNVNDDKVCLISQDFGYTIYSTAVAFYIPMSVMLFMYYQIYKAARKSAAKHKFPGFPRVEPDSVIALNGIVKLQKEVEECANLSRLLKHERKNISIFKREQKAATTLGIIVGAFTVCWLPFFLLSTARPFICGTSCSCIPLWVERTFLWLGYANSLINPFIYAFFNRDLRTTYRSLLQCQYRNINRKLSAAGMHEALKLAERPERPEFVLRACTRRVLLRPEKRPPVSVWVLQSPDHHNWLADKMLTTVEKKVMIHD

EC50 [1] [µM] | IC50 [2] [µM] | EC50 [3] [µM] | EC50 [4] [µM] | IC50 [5] [µM] | IC50 [6] [µM] | IC50 (Adenosine receptor A3) [µM] | microsomal CLint at 1 µM [7] [µL/min/mg] | EC50 [8] [µM] | IC50 [9] [µM] | remaining at 48 h, 10 mg/ml [10] [%] | fraction unbound at 4.5 h, 5 µM [11] | Structure (SMILES)
> 5.01 | > 5.01 | > 5.01 | > 5.01 | > 5.01 | > 5.01 | > 5.01 | > 346 | > 5.01 | > 5.01 | 96 | 0.179 | CB1C=Cc2cccc(OCC(O)CNC(C)C)c2N1 (centres undefined)
> 5.01 | > 5.01 | > 5.01 | > 5.01 | > 5.01 | > 5.01 | > 5.01 | 175 | > 5.01 | > 5.01 | 96 | 0.367 | CB1C=Cc2c(cccc2OCC(O)CN(C)C)N1 (centres undefined)
